Data as given in US20230286923A1 (INIPHARM, INC., priority 2020, published 2023).

biological target: HSD17B13 enzyme (Homo sapiens (Human), UniProt Q7Z5P4); test: Estrone detection assay (LC/MS, conversion of estradiol to estrone) for HSD17B13 activity; assay type: biochemical; conditions: substrate 4 µM estradiol, 6 mM NAD+, 30 nM enzyme
Protocol: The liquid chromatography/mass spectrometry (LC/MS) estrone detection assay monitors the conversion of estradiol to estrone by HSD17B13. This assay was undertaken in a 96wp format (Eppendorf deep well Plate 96/500) in an 80 µl reaction volume containing: 4 µM of Estradiol (E2; Cayman; #10006315), 6 mM NAD^+ (Sigma; #N0623) and 30 nM HSD17B13 enzyme (in-house; E. coli expressed His-tagged, purified, soluble protein) in a reaction containing 1 M potassium phosphate buffer pH 7.4, with 0.5% vehicle (DMSO). Reactions were incubated for 2 hours at 26.5° C., and estradiol (E2) conversion to estrone (E1) was quantitated by LC-MS/MS based analyte detection for both E2 and E1 using LCMS grade reagents.
Reactions were terminated by the addition of two volumes of acetonitrile (MeCN; LCMS grade; CAS# 75/05/8) containing deuterated (D4)-E1 used as internal standard (Clear Synth; #CS-T-54273; 500 ng/mL final concentration). Samples were applied to pre-prepared Bond Elut-C18 extraction cartridges (3 mL; Agilent; #12102028), washed and eluted in MeCN. Eluates were dried under nitrogen and re-suspended in 60% methanol (LCMS grade methanol; CAS# 67/56/1) before submission for analysis. Aqueous linearity for E2 and E1 were included for quantification.
Analysis of samples was undertaken on a XBridge BEH C18 column (Waters; #186003033) using 0.1% Diethyl Amine in MeCN (mobile phase A; DEA CAS# 109-89-7) and 0.1% Diethyl Amine in milli-Q water (mobile phase B) in a 3 min gradient allowing 25%B. Analytes were detected in negative mode using MRM analysis, with E2 having a RT of 1.85 min and E1 having a RT of 2 min. Activity of the enzyme, in the absence of NAD^+, was used to evaluate specificity of conversion. Enzyme activity in the presence of test samples was expressed as a percentage of the uninhibited enzyme activity, and plotted versus inhibitor concentration. Non-linear regression was performed using a four-parameter logistic model and GraphPad Prism software (GraphPad Software, La Jolla, CA). All assessments were undertaken in duplicate evaluations and pooled during extraction process and subsequently injected as duplicates for LC-MS/MS analysis.

HSD17B13 enzyme, sequence (Q7Z5P4 20-300): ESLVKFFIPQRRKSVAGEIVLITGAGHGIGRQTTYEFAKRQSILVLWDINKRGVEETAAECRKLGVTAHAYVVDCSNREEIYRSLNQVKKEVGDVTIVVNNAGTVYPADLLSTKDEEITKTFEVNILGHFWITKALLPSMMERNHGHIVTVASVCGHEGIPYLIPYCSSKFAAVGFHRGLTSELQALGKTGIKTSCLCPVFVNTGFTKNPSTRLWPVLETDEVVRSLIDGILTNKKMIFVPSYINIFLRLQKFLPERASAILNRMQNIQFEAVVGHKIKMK

SMILES	IC50 [nM]
O=C(Nc1cccc2ncn(Cc3ccccc3OC(F)(F)F)c(=O)c12)c1cc(F)c(O)c(C(F)(F)F)c1 [Example 64, 3-fluoro-4-hydroxy-N-(4-oxo-3-(2-(trifluoromethoxy)benzyl)-3,4-dihydroquinazolin-5-yl)-5-(trifluoromethyl)benzamide]	≤ 100
N#Cc1cc(C(=O)Nc2cccc3ncn(Cc4cccc(C(F)(F)F)c4)c(=O)c23)cc(F)c1O [Example 57, 3-cyano-5-fluoro-4-hydroxy-N-(4-oxo-3-(3-(trifluoromethyl)benzyl)-3,4-dihydroquinazolin-5-yl)benzamide]	≤ 100
O=C(Nc1cccc2ncn(Cc3ccccc3C(F)(F)F)c(=O)c12)c1cc(Cl)c(O)c(C(F)(F)F)c1 [Example 39, 3-chloro-4-hydroxy-N-(4-oxo-3-(2-(trifluoromethyl)benzyl)-3,4-dihydroquinazolin-5-yl)-5-(trifluoromethyl)benzamide]	100 to 1000
N#Cc1cc(C(=O)Nc2cccc3ncn(Cc4ccc(F)cc4)c(=O)c23)cc(F)c1O [Example 44, 3-cyano-5-fluoro-N-(3-(4-fluorobenzyl)-4-oxo-3,4-dihydroquinazolin-5-yl)-4-hydroxybenzamide]	≤ 100
C[C@@H](c1cccc(F)c1)n1cnc2cccc(NC(=O)c3cc(F)c(O)c(C#N)c3)c2c1=O [Example 47, (S)-3-cyano-5-fluoro-N-(3-(1-(3-fluorophenyl)ethyl)-4-oxo-3,4-dihydroquinazolin-5-yl)-4-hydroxybenzamide]	≤ 100
N#Cc1cc(C(=O)Nc2cccc3ncn(Cc4ccc(OC(F)(F)F)cc4)c(=O)c23)cc(Cl)c1O [Example 58, 3-chloro-5-cyano-4-hydroxy-N-(4-oxo-3-(4-(trifluoromethoxy)benzyl)-3,4-dihydroquinazolin-5-yl)benzamide]	100 to 1000
O=C(Nc1cccc2ncn(Cc3ccccc3F)c(=O)c12)c1cc(Cl)c(O)c(C(F)(F)F)c1 [Example 41, 3-chloro-N-(3-(2-fluorobenzyl)-4-oxo-3,4-dihydroquinazolin-5-yl)-4-hydroxy-5-(trifluoromethyl)benzamide]	100 to 1000
N#Cc1cc(C(=O)Nc2cccc3ncn(Cc4ccc(C(F)(F)F)cc4)c(=O)c23)cc(F)c1O [Example 59, 3-cyano-5-fluoro-4-hydroxy-N-(4-oxo-3-(4-(trifluoromethyl)benzyl)-3,4-dihydroquinazolin-5-yl)benzamide]	≤ 100
CC(C)(C)CCn1cnc2cccc(NC(=O)c3cnc(O)c(Cl)c3)c2c1=O [Example 12, 5-chloro-N-(3-(3,3-dimethylbutyl)-4-oxo-3,4-dihydroquinazolin-5-yl)-6-hydroxynicotinamide]	1000 to 10000
N#Cc1cc(C(=O)Nc2cccc3ncn(Cc4ccccc4C(F)(F)F)c(=O)c23)cc(F)c1O [Example 52, 3-cyano-5-fluoro-4-hydroxy-N-(4-oxo-3-(2-(trifluoromethyl)benzyl)-3,4-dihydroquinazolin-5-yl)benzamide]	≤ 100
N#Cc1cc(C(=O)Nc2cccc3ncn(Cc4cc[nH]n4)c(=O)c23)cc(F)c1O [Example 61, N-(3-((1H-pyrazol-3-yl)methyl)-4-oxo-3,4-dihydroquinazolin-5-yl)-3-cyano-5-fluoro-4-hydroxybenzamide]	100 to 1000
CC(C)(C)n1ccc(Cn2cnc3cccc(NC(=O)c4cc(F)c(O)c(C#N)c4)c3c2=O)n1 [Example 63, N-(3-((1-(tert-butyl)-1H-pyrazol-3-yl)methyl)-4-oxo-3,4-dihydroquinazolin-5-yl)-3-cyano-5-fluoro-4-hydroxybenzamide]	100 to 1000
O=C(Nc1cccc2ncn(Cc3ccccc3OC(F)(F)F)c(=O)c12)c1cc(Cl)c(O)c(C(F)(F)F)n1 [Example 50, 4-chloro-5-hydroxy-N-(4-oxo-3-(2-(trifluoromethoxy)benzyl)-3,4-dihydroquinazolin-5-yl)-6-(trifluoromethyl)picolinamide]	100 to 1000
